Assay results from patent US9394264B2 (Receptos, Inc., priority 2009, dated 2016).

target: S1P1/EDG1 (Homo sapiens, UniProt P21453); test: S1P1 CRE-bla CHOK1 reporter assay (inhibition of Forskolin induced cAMP); assay type: cell-based; conditions: agonist activity range, S1P1 CRE-bla CHOK1 cells, 2 μM Forskolin; read-out: S1P1 ACTIVITY
Text: A mammalian expression plasmid containing S1P1/EDG1 cloned into pcDNA3.1 was purchased from Missouri S&T cDNA Resource Centre. The nucleotide and amino acid sequence of human S1P1/EDG1 are published in Hla and Maciag (J Biol Chem, 265(1990), 9308-9313). S1P1/pcDNA3.1 was transfected into the CRE-bla CHO K1 (Invitrogen) cell line, and stable single cell clones were selected using standard techniques. Expression of functional S1P1/EDG1 receptor was confirmed by cell surface FACS with a S1P1 antibody (R&D Systems, clone 218713) and S1P-mediated inhibition of Forskolin induced cAMP.
Cells were seeded into 384-well black wall/clear bottom plates at 10^4 cells/well/19.5 μl assay media (DMEM-phenol free, 0.5% charcoal/dextran stripped serum, 2 mM glutamine, 0.1 mM NEAA, 1 mM Na-Pyruvate, 25 mM Hepes) and incubated for 18 hrs at 37° C. in 5% CO2. Dose response curves (10-point) were generated in 10 mM Hepes, 0.1% Pluronic F127, in the presence of Forskolin. Cells were treated with 0.5 μl compound in the presence of 2 μM Forskolin for 4 hrs at 37° C. The FRET-based β-lactamase fluorescent substrate (LiveBLAzer™-FRET B/G Loading Kit CC4-AM; Invitrogen) was prepared according to manufacturer's directions, and incubated with cells for 2 hrs at room temperature. Plates were read at Ex:410/Em:458 and Ex:410/Em:522, and the response ratio determined. Data was analyzed by non-linear regression to determine the EC50 for inhibition of Forskolin induced cAMP.

Sequence of S1P1/EDG1 (P21453 whole entry): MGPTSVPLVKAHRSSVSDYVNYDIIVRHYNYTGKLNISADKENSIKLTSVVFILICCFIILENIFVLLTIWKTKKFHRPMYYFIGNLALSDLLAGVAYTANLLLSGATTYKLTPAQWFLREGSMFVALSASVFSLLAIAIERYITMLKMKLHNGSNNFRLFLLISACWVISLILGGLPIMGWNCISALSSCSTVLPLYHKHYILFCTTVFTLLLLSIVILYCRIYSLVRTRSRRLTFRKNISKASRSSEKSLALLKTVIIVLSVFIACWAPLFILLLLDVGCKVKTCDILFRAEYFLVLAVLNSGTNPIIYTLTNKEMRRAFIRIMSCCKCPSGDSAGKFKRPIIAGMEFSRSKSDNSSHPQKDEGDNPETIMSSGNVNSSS

Compound	EC50 [nM]
CC(C)Oc1ccc(-c2nc(-c3cccc4c3CCC[C@H]4N)no2)cc1C#N [Compound 3, (R)-5-(3-(5-amino-5,6,7,8-tetrahydronaphthalen-1-yl)-1,2,4-oxadiazol-5-yl)-2-isopropoxybenzonitrile]	0.5 to 5
CC(C)Oc1ccc(-c2nc(-c3cccc4c3CCC[C@H]4NC(=O)N3CCC(O)CC3)no2)cc1C#N [Compound 19]	0.5 to 5
CC(C)Oc1ccc(-c2nc(-c3ccc4occc4c3)no2)cc1C#N [Compound 69, 5-(3-(benzofuran-5-yl)-1,2,4-oxadiazol-5-yl)-2-isopropoxybenzonitrile]	0.5 to 5
COCCS(=O)(=O)N[C@@H]1CCCc2c(-c3noc(-c4ccc(OC(C)C)c(C#N)c4)n3)cccc21 [Compound 32, (R)-N-(5-(5-(3-cyano-4-isopropoxyphenyl)-1,2,4-oxadiazol-3-yl)-1,2,3,4-tetrahydronaphthalen-1-yl)-2-methoxyethanesulfonamide]	0.05 to 0.5
CC(C)Oc1ccc(-c2nc(-c3cccc4c3CCC[C@@H]4NS(=O)(=O)CCO)no2)cc1C#N [Compound 36, (S)-N-(5-(5-(3-cyano-4-isopropoxyphenyl)-1,2,4-oxadiazol-3-yl)-1,2,3,4-tetrahydronaphthalen-1-yl)-2-hydroxyethanesulfonamide]	< 0.05
COCC(=O)N[C@@H]1CCCc2c(-c3noc(-c4ccc(OC(C)C)c(C#N)c4)n3)cccc21 [Compound 23]	0.5 to 5
CC(C)Oc1ccc(-c2nc(-c3cccc4c3CCC[C@H]4NC(=O)N(C)C)no2)cc1C#N [Compound 5]	0.05 to 0.5
CC(C)Oc1ccc(-c2nc(-c3cccc4c3CCC[C@@H]4NC(=O)N3CCC[C@H](O)C3)no2)cc1C#N [Compound 17]	0.5 to 5
CC(C)Oc1ccc(-c2nc(-c3cccc4c3CCC[C@@H]4N)no2)cc1C#N [Compound 4, (S)-5-(3-(5-amino-5,6,7,8-tetrahydronaphthalen-1-yl)-1,2,4-oxadiazol-5-yl)-2-isopropoxybenzonitrile]	0.05 to 0.5
CC(C)Oc1ccc(-c2nc(-c3cccc4c3CCC[C@@H]4NS(=O)(=O)CC(=O)O)no2)cc1C#N [Compound 35, (S)-2-(N-(5-(5-(3-cyano-4-isopropoxyphenyl)-1,2,4-oxadiazol-3-yl)-1,2,3,4-tetrahydronaphthalen-1-yl)sulfamoyl)acetic acid]	< 0.05
CC(C)Oc1ccc(-c2nc(-c3cccc4c3CCC[C@H]4NCC(=O)N3CCCC3)no2)cc1C#N [Compound 54, (R)-2-isopropoxy-5-(3-(5-((2-oxo-2-(pyrrolidin-1-yl)ethyl)amino)-5,6,7,8-tetrahydronaphthalen-1-yl)-1,2,4-oxadiazol-5-yl)benzonitrile]	0.5 to 5
CC(C)Oc1ccc(-c2nc(-c3cccc4c3CCC[C@@H]4NC(=O)N(C)C)no2)cc1C#N [Compound 6]	0.05 to 0.5
CCOc1ccc(Cc2nc(-c3cccc4c3CC[C@@H]4NCC(=O)N(C)C)no2)cc1OCC [Compound 66, (S)-2-((4-(5-(3,4-diethoxybenzyl)-1,2,4-oxadiazol-3-yl)-2,3-dihydro-1H-inden-1-yl)amino)-N,N-dimethylacetamide]	> 5
CC(C)Oc1ccc(-c2nc(-c3cccc4c3CCC[C@H]4NS(C)(=O)=O)no2)cc1C#N [Compound 28, (R)-N-(5-(5-(3-cyano-4-isopropoxyphenyl)-1,2,4-oxadiazol-3-yl)-1,2,3,4-tetrahydronaphthalen-1-yl)methanesulfonamide]	0.05 to 0.5
CC(C)Oc1ccc(-c2nc(-c3cccc4c3CCC[C@H]4NC(=O)N3CCCC3)no2)cc1C#N [Compound 11]	0.05 to 0.5
CCOc1ccc(Cc2nc(-c3cccc4c3CCC4NCCS(=O)(=O)NC)no2)cc1OCC (stereo not shown) [Compound 64, 2-((4-(5-(3,4-diethoxybenzyl)-1,2,4-oxadiazol-3-yl)-2,3-dihydro-1H-inden-1-yl)amino)-N-methylethanesulfonamide]	> 5
CC(C)Oc1ccc(-c2nc(-c3cccc4c3CCC[C@H]4NS(=O)(=O)CC(=O)N(C)C)no2)cc1C#N [Compound 40, (R)-2-(N-(5-(5-(3-cyano-4-isopropoxyphenyl)-1,2,4-oxadiazol-3-yl)-1,2,3,4-tetrahydronaphthalen-1-yl)sulfamoyl)-N,N-dimethylacetamide]	< 0.05
CC(C)Oc1ccc(-c2nc(-c3cccc4c3CCC[C@H]4NCCO)no2)cc1C#N [Compound 50, (R)-5-(3-(5-((2-hydroxyethyl)amino)-5,6,7,8-tetrahydronaphthalen-1-yl)-1,2,4-oxadiazol-5-yl)-2-isopropoxybenzonitrile]	0.05 to 0.5
CC(C)Oc1ccc(-c2nc(-c3cccc4c3CCC[C@@H]4NC(=O)N3CC[C@H](O)C3)no2)cc1C#N [Compound 14]	0.05 to 0.5
CC(C)Oc1ccc(-c2nc(-c3cccc4c3CCC[C@H]4NCC(=O)O)no2)cc1C#N [Compound 52, (R)-2-((5-(5-(3-cyano-4-isopropoxyphenyl)-1,2,4-oxadiazol-3-yl)-1,2,3,4-tetrahydronaphthalen-1-yl)amino) acetic acid]	< 0.05
Cc1cnccc1-c1noc(-c2ccc(OC(C)C)c(C#N)c2)n1 [Compound 70, 2-isopropoxy-5-(3-(3-methylpyridin-4-yl)-1,2,4-oxadiazol-5-yl)benzonitrile]	< 0.05
CC(C)Oc1ccc(-c2nc(-c3cccc4c3CCC[C@@H]4NCCO)no2)cc1C#N [Compound 51, (S)-5-(3-(5-((2-hydroxyethyl)amino)-5,6,7,8-tetrahydronaphthalen-1-yl)-1,2,4-oxadiazol-5-yl)-2-isopropoxybenzonitrile]	0.05 to 0.5
CC(C)Oc1ccc(-c2nc(-c3cccc4c3CCC[C@H]4NC(=O)CN(C)C)no2)cc1C#N [Compound 25]	0.5 to 5
CC(C)Oc1ccc(-c2nc(-c3cccc4c3CCC[C@H]4NC(=O)N3CC(C(=O)O)C3)no2)cc1C#N [Compound 10]	0.05 to 0.5
CC(C)Oc1ccc(-c2nc(-c3cccc4c3CCC[C@H]4NS(=O)(=O)CC(=O)O)no2)cc1C#N [Compound 34, (R)-2-(N-(5-(5-(3-cyano-4-isopropoxyphenyl)-1,2,4-oxadiazol-3-yl)-1,2,3,4-tetrahydronaphthalen-1-yl)sulfamoyl)acetic acid]	< 0.05
CC(C)Oc1ccc(-c2nc(-c3cccc4c3CCC[C@H]4NC(=O)N3CCC[C@H](O)C3)no2)cc1C#N [Compound 18]	0.5 to 5
CC(C)Oc1ccc(-c2nc(-c3cccc4c3CCC[C@@H]4NS(=O)(=O)CCN3CC[C@@H](O)C3)no2)cc1C#N [Compound 46]	0.5 to 5
CC(C)Oc1ccc(-c2ncc(-c3cccc4c3CCC4O)o2)cc1C#N (stereo not shown) [Compound 56, 5-(5-(1-hydroxy-2,3-dihydro-1H-inden-4-yl)oxazol-2-yl)-2-isopropoxybenzonitrile]	0.5 to 5
